For one assay, the target named is T1, ACE from rabbit lung (Oryctolagus cuniculus, UniProt P12822).
T1 construct: ACE from rabbit lung; purchased Sigma Chemical Co; host or cells: rabbit lung tissue
T1 sequence (P12822 34-1310): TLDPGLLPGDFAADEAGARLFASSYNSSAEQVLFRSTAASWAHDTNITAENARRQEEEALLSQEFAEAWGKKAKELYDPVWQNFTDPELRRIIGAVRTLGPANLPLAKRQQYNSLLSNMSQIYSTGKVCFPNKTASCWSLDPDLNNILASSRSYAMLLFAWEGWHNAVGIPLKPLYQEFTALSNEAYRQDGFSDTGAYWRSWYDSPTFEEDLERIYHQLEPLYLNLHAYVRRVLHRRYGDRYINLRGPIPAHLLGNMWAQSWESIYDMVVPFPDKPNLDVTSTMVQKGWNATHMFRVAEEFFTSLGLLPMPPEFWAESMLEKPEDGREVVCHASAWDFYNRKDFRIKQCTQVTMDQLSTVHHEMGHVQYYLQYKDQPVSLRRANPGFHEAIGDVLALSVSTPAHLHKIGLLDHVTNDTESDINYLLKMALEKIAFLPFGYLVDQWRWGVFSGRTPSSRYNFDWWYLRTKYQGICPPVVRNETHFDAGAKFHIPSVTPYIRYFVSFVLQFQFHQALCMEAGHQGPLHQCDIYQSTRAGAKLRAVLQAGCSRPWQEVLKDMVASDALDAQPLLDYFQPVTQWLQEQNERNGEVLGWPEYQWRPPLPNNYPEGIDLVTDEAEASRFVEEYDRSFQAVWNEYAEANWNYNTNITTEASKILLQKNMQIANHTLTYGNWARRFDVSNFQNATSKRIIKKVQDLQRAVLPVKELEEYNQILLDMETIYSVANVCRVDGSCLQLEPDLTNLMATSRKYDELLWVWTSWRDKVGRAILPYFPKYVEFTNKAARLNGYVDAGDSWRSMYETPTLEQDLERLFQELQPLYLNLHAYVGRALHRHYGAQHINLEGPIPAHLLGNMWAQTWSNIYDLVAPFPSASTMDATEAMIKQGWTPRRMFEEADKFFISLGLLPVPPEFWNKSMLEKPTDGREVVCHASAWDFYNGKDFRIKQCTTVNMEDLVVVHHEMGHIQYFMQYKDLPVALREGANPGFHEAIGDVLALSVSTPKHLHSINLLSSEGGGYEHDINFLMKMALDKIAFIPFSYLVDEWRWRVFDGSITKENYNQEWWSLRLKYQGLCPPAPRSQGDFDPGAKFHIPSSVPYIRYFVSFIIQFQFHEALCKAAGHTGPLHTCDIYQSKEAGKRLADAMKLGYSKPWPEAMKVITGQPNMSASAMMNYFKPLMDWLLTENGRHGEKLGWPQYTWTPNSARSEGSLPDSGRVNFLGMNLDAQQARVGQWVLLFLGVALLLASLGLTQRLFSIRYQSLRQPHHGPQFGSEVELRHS
Briefly: ACE inhibition assay. The format is biochemical. On the procedure: Peptide-ACE peptidase inhibitor conjugate compounds were assessed in an ACE inhibition assay using purified ACE enzyme and chromogenic substrates. An ACE stock solution was prepared by dissolving 0.1 unit of enzyme (ACE from rabbit lung, Sigma Chemical Co., St. Louis, Mo.) in 0.640 mL of HEPES buffer (0.1 M, pH=8). A 2 mM stock solution of substrate (N-benzyloxycarbonyl-Phe-His-Leu-OH) dissolved in methanol. The ACE inhibitor compounds were dissolved in phosphate buffer (0.1 M, pH=8) at concentrations of 0.0, 1, 10, 20, 60 and 100 μM. For the inhibition assay, six 2 mL microcentrifuge tubes were prepared containing 1.45 mL of phosphate buffer pH=8, 0.05 mL of 10% NaCl and 0.015 mL of substrate solution. To each microcentrifuge tube was added 0.015 mL of one of the ACE inhibitor compound's stock solutions. The solutions were heated at 37° C. for about 5 minutes. The reaction was started by the addition of 5 μL of the ACE stock solution to each tube mixture (30 seconds in between). The reaction mixtures were incubated at 37° C. After 5 min, 10 min, 30 min and 60 min., aliquots of 100 μL were taken from each tube (each sample was taken in intervals of 30 seconds). Tubes containing the 100 μL sample were floated in a boiling water bath for 5 min. and then cooled. The reaction samples were then treated with 20 μL of 2M NaOH and 20 μL of 0.1% phthaldialdehyde solution. The tubes were shaken for 4 minutes and 10 μL of 6 M HCl were added. […] Initial rates were determined from linear portions of product release curves. Starting substrate concentration in all assays was 20 μM. Apparent binding constants (Kd^app or Ki^app) of inhibitors to ACE were determined by fitting inhibition curves (initial rate vs. inhibitor concentration) to equation:
[formula] where v0 is reaction rate in the absence of inhibitor and [I]-inhibitor concentration. Fits were done by least-squares method using KaleidaGraph 3.6 (Synergy Software, Reading Pa.).

Assay [1] addresses T2, endogenously expressed GLP-1 receptor, thyroid c-cell carcinoma line 6-23 (Rattus norvegicus, UniProt P32301).
T2 construct: the endogenously expressed GLP-1 receptor; endogenous in cells; host or cells: thyroid c-cell carcinoma line 6-23
T2 sequence (P32301 22-463): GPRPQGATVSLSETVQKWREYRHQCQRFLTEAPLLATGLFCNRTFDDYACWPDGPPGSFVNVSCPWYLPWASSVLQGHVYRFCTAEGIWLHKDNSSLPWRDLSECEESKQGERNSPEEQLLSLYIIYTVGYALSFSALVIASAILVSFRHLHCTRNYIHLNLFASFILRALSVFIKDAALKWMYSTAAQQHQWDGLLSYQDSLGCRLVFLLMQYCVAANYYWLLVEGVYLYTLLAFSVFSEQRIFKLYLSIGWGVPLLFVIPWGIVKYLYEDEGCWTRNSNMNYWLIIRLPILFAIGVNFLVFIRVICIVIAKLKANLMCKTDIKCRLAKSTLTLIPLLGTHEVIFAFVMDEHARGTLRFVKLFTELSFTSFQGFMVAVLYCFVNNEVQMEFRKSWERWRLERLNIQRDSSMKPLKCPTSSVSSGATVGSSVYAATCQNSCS
The assay is described as follows: GLP-1 cyclase whole cell cAMP assay. Type of assay: cell-based. On the procedure: Cells from the thyroid c-cell carcinoma line 6-23 were grown to confluence and harvested by treatment with Versene ([…]). […] Accumulation of cAMP was measured following 30′ conjugate or control agent treatment using an HTRF® cell-based cAMP assay kit (Cisbio-US, Inc., Bedford, Mass.) in 384-well format. The compounds were tested at final concentrations from 1 μM to 10 pM. The cell-conjugate mixture was incubated for 30′ at room temperature, at which time the reaction was terminated by the addition of kit-provided α-cAMP Cryptate solution. Plates were then sealed and stored at room temperature overnight to allow components to come to full equilibrium. cAMP content was then measured by time resolved fluorescence.
A general note: cAMP levels reflect the balance of adenylyl cyclase and phosphodiesterase activity.

Where [2] appears, read: substrate N-benzyloxycarbonyl-Phe-His-Leu-OH 20 μM, read-out: ACE inhibition IC50.

Read-outs that look alike come from different tables or passages of the source.

We go through four compounds from US8598314B2 (priority 2007, dated 2013).

For orientation: IC50 means the concentration at which inhibition is half-maximal. For orientation: EC50 means the midpoint of the concentration-response curve.

As for `CC[C@H](C)[C@H](NC(=O)[C@H](Cc1ccccc1)NC(=O)[C@H](CC(C)C)NC(=O)[C@H](CCCNC(=N)N)NC(=O)[C@@H](NC(=O)[C@H](C)NC(=O)[C@H](CCC(=O)O)NC(=O)[C@H](CCC(=O)O)NC(=O)[C@H](CCC(=O)O)NC(=O)[C@H](CC(C)C)NC(=O)[C@H](CCC(N)=O)NC(=O)[C@H](CCCCN)NC(=O)[C@H](CO)NC(=O)[C@H](CC(C)C)NC(=O)[C@H](CC(=O)O)NC(=O)[C@H](CO)NC(=O)[C@@H](NC(=O)[C@H](Cc1ccccc1)NC(=O)[C@@H](NC(=O)CNC(=O)[C@H](CCC(=O)O)NC(=O)CNC(=O)[C@@H](N)Cc1c[nH]cn1)[C@@H](C)O)[C@@H](C)O)C(C)C)C(=O)N[C@@H](CCC(=O)O)C(=O)N[C@@H](Cc1c[nH]c2ccccc12)C(=O)N[C@@H](CC(C)C)C(=O)N[C@@H](CCCCN)C(=O)N[C@@H](CC(N)=O)C(=O)NCCCC(=O)NCCOCCOCC(=O)NCCCC(=O)NCCCC[C@H](NC(CCc1ccccc1)C(=O)O)C(=O)N1CCC[C@H]1C(=O)O` (some centres unmarked) [Compound 5605], the half-inhibitory concentration (IC50) at ACE from rabbit lung (setting [2]) was 300 nM. In assay [1], this compound had an EC50 of 1.24 nM.

With `CC[C@H](C)[C@H](NC(=O)[C@H](Cc1ccccc1)NC(=O)[C@H](CC(C)C)NC(=O)[C@H](CCCNC(=N)N)NC(=O)[C@@H](NC(=O)[C@H](C)NC(=O)[C@H](CCC(=O)O)NC(=O)[C@H](CCC(=O)O)NC(=O)[C@H](CCC(=O)O)NC(=O)[C@H](CC(C)C)NC(=O)[C@H](CCC(N)=O)NC(=O)[C@H](CCCCN)NC(=O)[C@H](CO)NC(=O)[C@H](CC(C)C)NC(=O)[C@H](CC(=O)O)NC(=O)[C@H](CO)NC(=O)[C@@H](NC(=O)[C@H](Cc1ccccc1)NC(=O)[C@@H](NC(=O)CNC(=O)[C@H](CCC(=O)O)NC(=O)CNC(=O)[C@@H](N)Cc1c[nH]cn1)[C@@H](C)O)[C@@H](C)O)C(C)C)C(=O)N[C@@H](CCC(=O)O)C(=O)N[C@@H](Cc1c[nH]c2ccccc12)C(=O)N[C@@H](CC(C)C)C(=O)N[C@@H](CCCCN)C(=O)N[C@@H](CC(N)=O)C(=O)NCCOCCOCCOCC(=O)NCCOCCOCC(=O)NCCCC[C@H](NC(CCc1ccccc1)C(=O)O)C(=O)N1CCC[C@H]1C(=O)O` (some centres unmarked) [Compound 5606], the IC50 at ACE from rabbit lung (setting [2]) worked out at 700 nM. Besides, it took 0.23 nM to reach a half-maximal effect in assay [1] (EC50).

As to `CC[C@H](C)[C@H](NC(=O)[C@H](Cc1ccccc1)NC(=O)[C@H](CC(C)C)NC(=O)[C@H](CCCNC(=N)N)NC(=O)[C@@H](NC(=O)[C@H](C)NC(=O)[C@H](CCC(=O)O)NC(=O)[C@H](CCC(=O)O)NC(=O)[C@H](CCC(=O)O)NC(=O)[C@H](CC(C)C)NC(=O)[C@H](CCC(N)=O)NC(=O)[C@H](CCCCN)NC(=O)[C@H](CO)NC(=O)[C@H](CC(C)C)NC(=O)[C@H](CC(=O)O)NC(=O)[C@H](CO)NC(=O)[C@@H](NC(=O)[C@H](Cc1ccccc1)NC(=O)[C@@H](NC(=O)CNC(=O)[C@H](CCC(=O)O)NC(=O)CNC(=O)[C@@H](N)Cc1c[nH]cn1)[C@@H](C)O)[C@@H](C)O)C(C)C)C(=O)N[C@@H](CCC(=O)O)C(=O)N[C@@H](Cc1c[nH]c2ccccc12)C(=O)N[C@@H](CC(C)C)C(=O)N[C@@H](CCCCN)C(=O)N[C@@H](CC(N)=O)C(=O)NCCOCCOCCOCC(=O)NCCCC(=O)NCCCC[C@H](NC(CCc1ccccc1)C(=O)O)C(=O)N1CCC[C@H]1C(=O)O` (some centres unmarked) [Compound 5609], on ACE from rabbit lung (setting [2]), the IC50 came out at 1000 nM. Further, the EC50 in assay [1] worked out at 0.65 nM.

As for `CC[C@H](C)[C@H](NC(=O)[C@H](Cc1ccccc1)NC(=O)[C@H](CC(C)C)NC(=O)[C@H](CCCNC(=N)N)NC(=O)[C@@H](NC(=O)[C@H](C)NC(=O)[C@H](CCC(=O)O)NC(=O)[C@H](CCC(=O)O)NC(=O)[C@H](CCC(=O)O)NC(=O)[C@H](CC(C)C)NC(=O)[C@H](CCC(N)=O)NC(=O)[C@H](CCCCN)NC(=O)[C@H](CO)NC(=O)[C@H](CC(C)C)NC(=O)[C@H](CC(=O)O)NC(=O)[C@H](CO)NC(=O)[C@@H](NC(=O)[C@H](Cc1ccccc1)NC(=O)[C@@H](NC(=O)CNC(=O)[C@H](CCC(=O)O)NC(=O)CNC(=O)[C@@H](N)Cc1c[nH]cn1)[C@@H](C)O)[C@@H](C)O)C(C)C)C(=O)N[C@@H](CCC(=O)O)C(=O)N[C@@H](Cc1c[nH]c2ccccc12)C(=O)N[C@@H](CC(C)C)C(=O)N[C@@H](CCCCN)C(=O)N[C@@H](CCC(N)=O)C(=O)NCC(=O)NCC(=O)N1CCC[C@H]1C(=O)N[C@@H](CO)C(=O)N[C@@H](CCCCN)C(=O)N[C@@H](CCC(=O)O)C(=O)N[C@H](C(=O)N[C@H](C(=O)N[C@@H](CO)C(=O)NCCCC(=O)NCCC(=O)NCCCC[C@H](NC(CCc1ccccc1)C(=O)O)C(=O)N1CCC[C@H]1C(=O)O)[C@@H](C)CC)[C@@H](C)CC` (some centres unmarked) [Compound 5716], the IC50 at ACE from rabbit lung was 140 nM. In assay [1], this compound yielded a concentration giving a half-maximal response (EC50) of 0.14 nM.
